The source of these data is ChEMBL document CHEMBL3507680, “University of Dundee, Gates Library screen for HepG2 cell viability”.

This data set in a line: Human HepG2 cell viability assay in 384 well format. The following applies: HepG2 cells, read-out: Inhibition. The data set is classed as toxicity, cell-based. More on the design: dose 125 nL, time 70.5 hour; cytotoxicity at 70.5 h: concentration not given beside the values.
Regarding `CCCc1nnc(N2CCCC(c3nnc(Cn4ccnc4)n3C)C2)s1` (stereo not drawn), the cytotoxicity at 70.5 h was -2.6%.

As to `Cc1nc(CNc2nc3c(s2)c(C)nn3C)cs1`, the cytotoxicity at 70.5 h is -8.75%.

Turning to `O=C(NCCc1cc(=O)[nH]cn1)c1[nH]nc2c1CCCC2`, the cytotoxicity at 70.5 h is -5.79%.

Take `COCC(=O)N[C@H]1C[C@@H](C(=O)NCCc2cccc(Cl)c2)N(C)C1`: the cytotoxicity at 70.5 h is -13.3%.

As to `CCn1c(C2CCN(C(=O)CCc3cc(Cl)no3)CC2)nn(C)c1=O`, the cytotoxicity at 70.5 h was -6.98%.

In the case of `CN1C(=O)c2ccc(C(=O)N(Cc3cnn(C)c3)C3CC3)cc2C1=O`, the cytotoxicity at 70.5 h is -16.5%.

On to `O=C(NC1CCOCC1)C1CC(=O)N(Cc2ccccn2)C1` (stereo not drawn), for which the cytotoxicity at 70.5 h was -2.88%.

Take `O=C(CSc1ccccc1)N1CCc2c(ncnc2N2CCOCC2)C1`: the cytotoxicity at 70.5 h was 0.558%.

On to `CC(C)n1cnnc1Cn1c(=O)cnc2ccccc21`, for which the cytotoxicity at 70.5 h was -4.23%.

In the case of `Cc1nc[nH]c1-c1nccn1CCN1CCOC1=O`, the cytotoxicity at 70.5 h is -8.03%.

As to `COc1nc(C)c(C(=O)NCc2cc(N3CCOCC3)ncn2)s1`, the cytotoxicity at 70.5 h is -2.68%.

As for `CC1=C(C(=O)NCc2cccnc2-n2cnc3ccccc32)OCCO1`, the cytotoxicity at 70.5 h was -0.825%.

For `Cc1cccc(C(C(=O)NCC2(O)CCCCC2)N(C)C)c1` (stereo not drawn), the cytotoxicity at 70.5 h worked out at 14.2%.

As for `CCCc1nc(CN(CC)C(=O)c2ccc(OC)c(OC)c2)no1`, the cytotoxicity at 70.5 h is 25.6%.

For `CC(C)(C)CN1CCC(c2nnc(Cn3ccnc3)n2C2CC2)CC1`, the cytotoxicity at 70.5 h is -3.87%.

For the compound `CCC[C@H]1CN(c2nc(CO)cs2)C[C@@H]1NC(=O)C1CCC1`, the cytotoxicity at 70.5 h was -5.73%.

On to `Cc1ccccc1CC1(CO)CCCN(c2ncnc3sccc23)C1` (stereo not drawn), for which the cytotoxicity at 70.5 h came to 31.4%.

For the compound `COc1ccc2nc(CCNC(=O)c3cc(CC(C)C)no3)[nH]c2c1`, the cytotoxicity at 70.5 h was -15.4%.

As to `CC(=O)NCC1CCC2(CCN(c3ncc(C(C)=O)c(C)n3)CC2)O1` (stereo not drawn), the cytotoxicity at 70.5 h was -2.5%.

Turning to `Cc1nc(NCC(O)CN2CCCCCC2)c2c(C)nn(C)c2n1` (stereo not drawn), the cytotoxicity at 70.5 h is -8.64%.

In the case of `Cc1nc(NC(=O)N2CCCC(C(F)(F)F)C2)nn1C` (stereo not drawn), the cytotoxicity at 70.5 h is -8%.

Regarding `CN(C)CCN(C)C1CCN(C(C(=O)O)c2ccc(F)c(Cl)c2)CC1` (stereo not drawn), the cytotoxicity at 70.5 h came out at 5.36%.

As to `Cc1nc(N)ncc1C(=O)N1CCCC(CCc2ccc(F)c(F)c2)C1` (stereo not drawn), the cytotoxicity at 70.5 h was -16.6%.

As to `O=S1(=O)C[C@@H]2[C@H](C1)N(Cc1ncc[nH]1)CCN2CCCc1ccccc1`, the cytotoxicity at 70.5 h was -1.68%.

For `CCOCCn1c(=O)n(Cc2ccc(F)cc2)c2ncc(C(=O)O)cc21`, the cytotoxicity at 70.5 h is -4.53%.

As to `COC(C)(C)CC(C)NCc1cn2ccccc2n1` (stereo not drawn), the cytotoxicity at 70.5 h was -16.8%.

For `CCc1n[nH]c(C(=O)N2CCC3(CCCN(CCOC)C3=O)C2)c1C` (stereo not drawn), the cytotoxicity at 70.5 h is -9.48%.

For the compound `COc1cc2nc(NCCNS(C)(=O)=O)cc(C)c2cc1OC`, the cytotoxicity at 70.5 h was -0.473%.

Take `COc1ccc(OC)c(C2CCN(c3ccc4cc[nH]c4n3)C2)c1` (stereo not drawn): the cytotoxicity at 70.5 h was -6.46%.

In the case of `CCC(C)N(Cc1cccnc1)Cc1cc2c(cc1Cl)OCO2` (stereo not drawn), the cytotoxicity at 70.5 h was -1.59%.

For the compound `O=C(c1cnc(-c2cccnc2)nc1)N1CCSCC1`, the cytotoxicity at 70.5 h turned out to be 21.6%.

For `CC(C)c1noc(Cn2ncn3cccc3c2=O)n1`, the cytotoxicity at 70.5 h was -6.57%.

Take `O=C1CC[C@H]2CN(c3ncc(F)cn3)CC[C@H]2N1CCc1c[nH]cn1`: the cytotoxicity at 70.5 h is -8.52%.

As for `CN(Cc1nccn1C)c1ccc(-c2nccn2C)nn1`, the cytotoxicity at 70.5 h was 18.2%.

Consider `COc1ccc(C(=O)C2CCCN(c3cnccn3)C2)c(C)c1` (stereo not drawn), for which the cytotoxicity at 70.5 h is -8.1%.

For the compound `CC(C)C(=O)N1CCC(c2nc3c([nH]2)CCCNC3=O)CC1`, the cytotoxicity at 70.5 h was -6.35%.

Regarding `CSCc1noc(CN(C)C(C)c2nc(C)sc2C)n1` (stereo not drawn), the cytotoxicity at 70.5 h was determined as 6.01%.

As to `CCOc1ccnc(N[C@@H](Cc2ccccc2)C(N)=O)n1`, the cytotoxicity at 70.5 h is -6.36%.

On to `CCCC(=O)N1CCCC(Cn2cc(-c3ccc(F)cc3)nn2)C1` (stereo not drawn), for which the cytotoxicity at 70.5 h is -11.1%.

Consider `O=C(c1ncccc1O)N1CCc2c(ncnc2N2CCOCC2)C1`, for which the cytotoxicity at 70.5 h was -4.02%.

In the case of `CC(Cc1cccnc1)Nc1ncnc2cccc(F)c12` (stereo not drawn), the cytotoxicity at 70.5 h was determined as 1.44%.

Regarding `Cc1cc2ccccc2n1CCC(=O)N1CCC[C@H]1C(N)=O`, the cytotoxicity at 70.5 h is -6.97%.

Regarding `Cc1nn(C)cc1Cn1c(=O)c(C)nc2ccccc21`, the cytotoxicity at 70.5 h is -6.18%.

Take `O=c1[nH]nc(CNCc2ccc(OC34CCCN(CC3)C4)cc2)[nH]1` (stereo not drawn): the cytotoxicity at 70.5 h was -4.91%.

Take `CCCSCC(=O)N1CCCC2(CCC(=O)N(CCc3c[nH]cn3)C2)C1` (stereo not drawn): the cytotoxicity at 70.5 h was -5.03%.

For the compound `NC1CCN(S(=O)(=O)c2ccc(C(=O)N3CCSCC3)cc2)C1` (stereo not drawn), the cytotoxicity at 70.5 h was -9.37%.

In the case of `Cc1ccc(C)c2c(C)c(C(=O)NCCCn3cnnc3)[nH]c12`, the cytotoxicity at 70.5 h is -6.86%.

For `CNC(=O)C1CCN(Cc2nc(-c3ccc(SC)cc3)oc2C)C1` (stereo not drawn), the cytotoxicity at 70.5 h is -6.93%.

Turning to `OCCOc1ccccc1CN1CCCC(O)(CO)C1` (stereo not drawn), the cytotoxicity at 70.5 h came to 9.78%.

Consider `CSCC[C@@H](CO)Nc1ccc(-c2nc(-c3ccccc3C)no2)cn1`, for which the cytotoxicity at 70.5 h was -6.4%.

As to `CS(=O)(=O)N1CCCC1C(=O)Nc1cnc2n1CCCC2` (stereo not drawn), the cytotoxicity at 70.5 h is -20.4%.

Regarding `CNC(=O)c1cn2cc(-c3ccc(F)cc3)n(CC=C(C)C)c(=O)c2n1`, the cytotoxicity at 70.5 h is 19.4%.

For `Cc1cc(CN(C)C(=O)C2CCC(=O)N(CC3CCCCC3)C2)n[nH]1` (stereo not drawn), the cytotoxicity at 70.5 h is -8.5%.

For `CN(Cc1noc2c1CCCC2)C(=O)Cn1c(=O)cnc2ccccc21`, the cytotoxicity at 70.5 h was -12.8%.

In the case of `O=C(c1cc(F)cc(Cl)c1)N1CCN(CCO)[C@@H]2CS(=O)(=O)C[C@@H]21`, the cytotoxicity at 70.5 h is -0.458%.

On to `c1csc(N2CCN(Cc3cc4n(n3)CCNC4)CC2)n1`, for which the cytotoxicity at 70.5 h was determined as 1.93%.

With `Cc1cnccc1-n1nc(C(C)C)nc1CCN(C)S(C)(=O)=O`, the cytotoxicity at 70.5 h is -1.14%.

As to `O=C1N(Cc2cccc(F)c2F)CCCC1(O)CNCc1ccccn1` (stereo not drawn), the cytotoxicity at 70.5 h is -2.1%.

As for `O=C(c1ccc(C2CCCN2C(=O)c2ccoc2)s1)N1CCOCC1` (stereo not drawn), the cytotoxicity at 70.5 h is -1.44%.

In the case of `CC(=O)Nc1ccc(Cl)c(C(=O)N(C)C(C)c2nccs2)c1` (stereo not drawn), the cytotoxicity at 70.5 h is -3.55%.

On to `CCOC(=O)N1CCC(NC(=O)c2cccc(C3CCCNC3)c2)CC1` (stereo not drawn), for which the cytotoxicity at 70.5 h is -24.4%.

Turning to `O=C(c1cccnc1)N1C[C@@H]2CC[C@H](C1)N(Cc1ccc(F)cc1Cl)C2`, the cytotoxicity at 70.5 h is 2.53%.

For `CN1CC(c2ccccc2)CC2(CCN(Cc3ncc[nH]3)CC2)C1` (stereo not drawn), the cytotoxicity at 70.5 h is -9.18%.

Turning to `O=C(CCCN1CCCCC1)N[C@H](C(=O)O)c1cccc(F)c1F`, the cytotoxicity at 70.5 h was -6.96%.

As to `Oc1ccc(-c2c(-c3ccccc3)ncn2C2CCNC2)cc1` (stereo not drawn), the cytotoxicity at 70.5 h is 6.28%.

With `Cc1cncc(C(=O)N2CCCC(O)(CO)C2)c1` (stereo not drawn), the cytotoxicity at 70.5 h was -7.18%.

On to `CCN(CC)C(CNS(=O)(=O)NCc1ccccc1)c1ccco1` (stereo not drawn), for which the cytotoxicity at 70.5 h was -2.25%.

Regarding `N#Cc1cccnc1N1CCCC(CO)(CCOc2ccccc2)C1` (stereo not drawn), the cytotoxicity at 70.5 h is -7.83%.

Turning to `COc1ccccc1OC1CN(C(=O)Cc2c(C)nc(C)[nH]c2=O)C1`, the cytotoxicity at 70.5 h was -2.42%.

`Cc1cc(C)n(C2CN(c3ncnc4c3CCNCC4)C2)n1`: the cytotoxicity at 70.5 h was -9%.

Turning to `Cc1[nH]c2c(C)ccc(C)c2c1CC(=O)NCCCNc1cccnc1`, the cytotoxicity at 70.5 h is -9.64%.

For the compound `Cc1ccc(CCNC(=O)Cn2nc(C)n(Cc3ccccc3)c2=O)s1`, the cytotoxicity at 70.5 h worked out at 3.12%.

Take `COCc1cc(NCCc2ccccn2)n2nccc2n1`: the cytotoxicity at 70.5 h stood at 29%.

On to `COc1cccc(C(=O)N2CCN(C(=O)CCn3ccnc3)CC2)c1`, for which the cytotoxicity at 70.5 h was -5.33%.

`CC(C)c1nc(CN(C)Cc2ccc(F)cc2)cs1`: the cytotoxicity at 70.5 h was -22.4%.

With `COc1ccc(OCc2nc(C(=O)N3C[C@H](O)[C@@H](N(C)C)C3)co2)cc1`, the cytotoxicity at 70.5 h is -4.57%.

As to `CN(C)CCNC(=O)c1cc2n(n1)CCN(C(=O)c1ccc[nH]1)C2`, the cytotoxicity at 70.5 h was -7.1%.

As to `CN(CC1CCCN1C)c1nccc(C2CCCC2)n1` (stereo not drawn), the cytotoxicity at 70.5 h was found to be 6.3%.

On to `CC(C)n1cnnc1CN(C)C(=O)c1cnn2ccccc12`, for which the cytotoxicity at 70.5 h came out at 4.09%.

For the compound `Cn1ncc2c(N3CCN(CCO)CC3)nc(C3CCCC3)nc21`, the cytotoxicity at 70.5 h was -14.2%.

Consider `CCOC(=O)N1CCN(C(=O)C(CC)n2cccn2)CC1` (stereo not drawn), for which the cytotoxicity at 70.5 h was 5.86%.

With `CSc1nccc(N2CCC3(CCCN(CC4CC4)C3)C2)n1` (stereo not drawn), the cytotoxicity at 70.5 h was -3.08%.

For `O=C1CCCCN1CCC(=O)N1CCCCC1c1ccc(F)cc1` (stereo not drawn), the cytotoxicity at 70.5 h is -6.63%.

For the compound `Cc1ccccc1C(=O)N1C[C@@H]2[C@@H](CN(C)CCc3ccccn3)[C@@H]2C1`, the cytotoxicity at 70.5 h was -8.54%.

In the case of `O=C(N1CCC(Oc2ccncc2)CC1)C1(c2ccc(F)cc2)CC1`, the cytotoxicity at 70.5 h was -3.22%.

As for `CN1C(=O)C2(CCN(c3nccc4occc34)CC2)c2ccccc21`, the cytotoxicity at 70.5 h turned out to be 9.71%.

As for `COc1ccc(-n2ncc(C(C)NCc3cnc(SC)nc3)c2C)cc1` (stereo not drawn), the cytotoxicity at 70.5 h is -3.63%.

For `O=C(CC1=CCCCC1)N1CCC(Cn2cc(CCO)nn2)CC1`, the cytotoxicity at 70.5 h was -11.5%.

As for `COCCN1CCN(C(C(=O)O)c2ccc(SC)cc2)CC1` (stereo not drawn), the cytotoxicity at 70.5 h is -5.21%.

For the compound `CCCn1ncc(CN2CCCCC2CCCOC)c1C` (stereo not drawn), the cytotoxicity at 70.5 h was -2.59%.

Turning to `Cc1nc(C(C)NC(=O)COc2ccc(F)cc2)n[nH]1` (stereo not drawn), the cytotoxicity at 70.5 h was -7.22%.

Consider `COCc1cc(NCC(F)(F)F)n2nccc2n1`, for which the cytotoxicity at 70.5 h was -12.3%.

As to `CCCC(=O)Nc1cccc(C(=O)N(C)CCCC2CCCO2)c1` (stereo not drawn), the cytotoxicity at 70.5 h was 2.48%.

`CC(Cn1cccn1)n1cnc2cccc(Cl)c2c1=O` (stereo not drawn): the cytotoxicity at 70.5 h worked out at 7.81%.

`CCN(Cc1cnn(C)c1)C[C@H]1CC[C@@H](Cc2ccc(OC)nc2)O1`: the cytotoxicity at 70.5 h was -8.42%.

Regarding `COc1ccc(Oc2ncccc2F)cc1CN1CCCC1`, the cytotoxicity at 70.5 h was 3.51%.

In the case of `CN(CC(=O)N1CC(C)(C)[C@](O)(C2CC2)C1)Cc1cccnc1`, the cytotoxicity at 70.5 h was -3.42%.

Turning to `O=C(O)Cc1cccc(-n2ccnc2-c2ccc(F)c(Cl)c2)c1`, the cytotoxicity at 70.5 h is -0.808%.
